Laboratory results published in US7989466B2, “Methods to inhibit or augment an inflammatory response” (Cambridge Enterprise Limited, priority 1999, dated 2011).
Where two headings read alike, the source gives them in different places. Positions of bridges follow the written chain, without caps; N, C: chain ends. Non-standard residues stand in square brackets, D forms with d. Residues, ends and D or L forms follow the SMILES beside them. No end group written: not given here.

Tests used:
[1] = test system: THP-1 cells; test: Agonist activity: agent in the lower compartment of the THP-1 migration chamber; details: agent in place of chemokine
[2] = test system: lung CD3, CD4, B220 cells; test: Lung cell number and type in normal mice; assay type: in vivo, mouse; details: high dose, all routes of administration, versus PBS controls
Method: To determine whether increasing doses of CRD-Leu4Ile11Cys13 peptide 3(3-12)[MCP-1] alters the cell number and type of cell within the lungs of normal mice, mice were injected intravenously, intravenously and intratracheally, or intratracheally alone with CRD-Leu4Ile11Cys13 peptide 3(3-12)[MCP-1]. Mice were sacrificed at 20-24 hours post injection. Lungs were collected for isolation of cells, which were subsequently counted and characterized by surface staining for CD3, CD4, CD8, B220, and Mac-1.

[3] = test system: MIP1α induced human monocyte migration; test: Human monocyte migration, MIP1α; assay type: cell-based; details: n.s. = no statistically significant inhibition
Method: (§1) Agents may also be screened in a chemotactic assay which employs human neutrophils, eosinophils, mast cells, basophils, platelets, lymphocytes or monocytes. For monocytes, 9 mls of fresh blood are transferred to a tube containing 1 ml of 3.8% sodium citrate, and left at room temperature for 15 minutes. Five mls of this anti-coagulated blood are carefully layered over 3.5 ml Polymorphprep® (Nycomed Pharma, Oslo), and centrifuged at 500 g for 35 minutes per the manufacturer's instructions. The top band at the sample/medium interface contains monocytes. The monocytes are carefully removed with a glass pipette, and reconstituted to the original volume (5 ml). The cells are washed with PBS plus 10% fetal calf serum, and centrifuged at 400 g for 10 minutes. The washing step is repeated three times before the cells are counted. Cells are resuspended at 1×10^7 cells/ml in RPMI-1640+10% fetal calf serum (FCS). The monocytes are cultured for two days at 37° C. in a humidified atmosphere of 5% CO2.
(§2) On day 2, the cells are counted, spun down, and reconstituted to 1×10^7 cells/ml in Gey's balanced salt solution+1 mg/ml bovine serum albumin (BSA). […]

[4] = test system: IL8 induced human monocyte migration; test: Human monocyte migration, IL8; assay type: cell-based; details: n.s. = no statistically significant inhibition
Method: as §1, §2

[5] = test system: HIV (IIIb), T-tropic; details: 100 μM peptide; for effect on HIV infection / replication in Jurkat cells, in words: reverse transcriptase assay; for inhibition of reverse transcriptase activity: Jurkat cells, HIV IIIb
[6] = test system: SDF-1α induced human monocyte migration; test: Human monocyte migration, SDF-1α; assay type: cell-based; details: n.s. = no statistically significant inhibition
Method: as §1, §2

[7] = test system: gp120; details: ns = not significantly different from control; >100 = ED50 not determined

Compound | agonist activity [1] | percentages of CD3, CD4 and B220 cells in lungs of normal mice [2] | % inhibition at 100 μM versus MIP1α, human monocyte migration [3] | % inhibition at 100 μM versus IL8, human monocyte migration [4] | effect on HIV infection / replication in Jurkat cells, in words ([5]; listed as Peptide 3(1-12)[MCP-1]) | effect on HIV infection / replication in Jurkat cells, in words ([5]; listed as peptide 3) | % inhibition at 100 μM versus SDF-1α, human monocyte migration [6] | inhibition of reverse transcriptase activity [5] [%] | inhibition of reverse transcriptase activity ([5]; listed as Peptide 2) [%] | inhibition of reverse transcriptase activity ([5]; listed as peptide 2) [%] | effect on HIV infection / replication in Jurkat cells, in words [5] | gp120 ED-50 [7] [µM]
CC[C@@H](C)[C@H]1NC(=O)[C@@H](CCC(N)=O)NC(=O)[C@H](N)CSSC[C@H](C(N)=O)NC(=O)[C@@H](CC(C)C)NC(=O)[C@@H](CC(=O)O)NC(=O)[C@H]2CCCN2C(=O)[C@@H](CCCCN)NC(=O)[C@@H](CCC(N)=O)NC(=O)[C@@H](CCCCN)NC(=O)[C@@H](Cc2c[nH]c3ccccc23)NC1=O (H-[dC][dQ][dI][dW][dK][dQ][dK][dP][dD][dL][dC]-NH2; disulfide 1-11; N-terminus assumed) | No agonist activity was detected in the concentration range where inhibitory effects on chemokine-induced migration are seen (<1 μM) | significantly reduced |  |  |  |  |  |  |  |  |  | 
EICADPKQKWVQ [peptide 3(1-12)[MCP-1]] |  |  | 120% | 106% | effective inhibitor of Jurkat cell infection by HIV | but not peptide 3 (100 μM) markedly inhibited virus replication | 108% |  |  |  |  | 
SYRRITSSKCPKEAV [peptide 2(1-15)[MCP-1]] | weak agonist properties |  | n.s. | n.s. |  |  | n.s. | 75±10 | 75 | 75 | more effective than peptide 3(1-12)[MCP-1] (SEQ ID NO:1), and as effective as SDF1α | 0.4
